Data taken from a melting point compilation (Tetko et al.; mined from patent text by program, amines drawn as free bases though some values may be those of a salt).

Row | melting point | Structure (SMILES)
1 | 168 to 169 °C | COc1cc(C2(C)C(=O)Nc3ccccc3C2=O)ccc1O (stereo not given)
2 | 200 to 201 °C | COc1cc(C#N)ccc1Cc1cn(C)c2ccc([N+](=O)[O-])cc12
3 | 228 °C | Cc1cccc(C)c1NC(=O)/C=C1\SCC(=O)N1c1ccccc1
4 | 302 to 303 °C | O=C1c2cc([N+](=O)[O-])ccc2-n2c1nc1ccccc1c2=O
5 | > 270 °C | CCCC1=C(C#N)C(c2ccccc2Cl)c2c(n[nH]c2C(C)C)N1 (stereo not given)
6 | 194 to 196 °C | CCc1cc(Oc2ccc(S(C)(=O)=O)nc2)cc2cc(C3=NCC(CC(=O)N4CCS(=O)CC4)S3)[nH]c12 (stereo not given)
7 | 161 to 162 °C | COC(=O)[C@]1(OS(C)(=O)=O)C[C@H](CC(C)C)[C@@H](O)[C@H](OC(=O)c2ccccc2)C1
8 | 60 to 70 °C | NC(=O)CNCc1noc([C@H](CCCC2CCCCC2)CC(=O)NO)n1
9 | 240 to 242 °C | O=C(Nc1ccc(C(CC2CCCC2)C(=O)Nc2nccs2)cc1)c1cccnc1 (stereo not given)
10 | 271 to 272 °C | O=c1cc(-c2ccccc2)sc2c1[nH]c1ccccc12
11 | 264 to 267 °C | CC(=O)Nc1nc(-c2cccnc2)c(-c2ccccc2)s1
12 | 212 °C | O=[N+]([O-])c1ccc(Oc2c(Cl)cc(S(=O)(=O)NC(=NO)Nc3ccc(Cl)cc3)cc2Cl)cc1
13 | 190 to 192 °C | COc1ccc(C(=O)Nc2ccc(-c3ccc(S(C)=O)cc3)cc2)cc1CCCN(C)C (stereo not given)
14 | 197 to 200 °C | COc1cc(NC2=C(Cl)C(=O)c3ccccc3C2=O)ccc1S(=O)(=O)Nc1ccccc1C
15 | 156 °C | COc1ccc(C(=O)N(C(=O)c2ccc(OC)cc2)c2nc3ccc(N(C)C)cc3c(NCc3ccccc3)c2C#N)cc1
16 | 110 to 112 °C | CC(C)(C)[C@@H](CO)NC(=O)[C@@H](CC(=O)O)n1ccc(-c2ccc(-c3ccc(C#N)cc3)cc2)c1
17 | 120 to 121 °C | C=Cc1c(NC(=O)OC(C)(C)C)cccc1[N+](=O)[O-]

Row | melting point | Structure (SMILES)
18 | 142 to 144 °C | CC(C)c1cccc(C(C)C)c1N=c1cccc(-c2cccc3ccccc23)[nH]1
19 | 99 to 101 °C | COc1ccc2c(=O)cc(C(OC)OC)oc2c1
20 | 98 to 102 °C | CCCCCCCCOc1cc2cc(CO)c(CO)c(-c3ccnc(Cl)c3)c2cc1OC
21 | 194 to 197 °C | Cc1ccc(-c2n[nH]cc2-c2ccnc(Cl)n2)cc1
22 | 171 to 173 °C | CNC(=O)C1=CC(C)(CF)Oc2ccc([N+](=O)[O-])cc21 (stereo not given)
23 | 236 °C | CCOC(=O)Cn1c(=O)c(C#N)c(N2CCN(C(=O)c3cccs3)CC2)c2cccnc21
24 | 160 to 163 °C | Cn1ccnc1-c1ccc(-c2cnc([C@H](Cc3ccccn3)N(C=O)OC(C)(C)C)n2C)cc1
25 | 144 to 145 °C | N#Cc1ccc(OCc2ccc3c(c2)OCO3)cc1OC(C(=O)O)c1ccccc1Cl (racemic)
26 | 77 to 78 °C | Cn1nc(-c2ncc(Cl)cc2F)c(I)c1OC(F)F
27 | 52 °C | N#CC(N)c1ccc(F)cc1F (stereo not given)
28 | > 300 °C | Cc1cc2n(C)c3ccncc3c(=O)n2n1
29 | 72 to 73 °C | COc1ccc(C(=O)C(C)(C)Br)c(Cl)c1Cl
30 | 103 to 105 °C | CC(C)(C)N(C=O)N=NNC=O
31 | 91 to 93 °C | Cc1cccc(-n2c(Cn3ccnc3)nc3ccccc32)c1
32 | 99 to 101 °C | O=S(=O)(Nc1cccc(CCOCc2ccc(-c3ccc(Cl)cc3)cc2F)c1)C(F)(F)F
33 | 116 to 120 °C | O=C1CCCOc2ccc(O)cc21
34 | 233 to 234 °C | C=Cn1cc(C(=O)O)c(=O)c2cnc(N3CCN(C)CC3)nc21

The next lines start with the compound.

Row | Structure (SMILES) | melting point
35 | Oc1cc2c(cc1-c1nc3cc(Cl)ccc3o1)oc1ccccc12 | 244 to 246 °C
36 | CC(=O)Nc1ccc(CNC(=O)c2ccccc2)cc1 | 175 to 177 °C
37 | COC(=O)c1ccc(OCCON=C(C)c2ccc(C(C)(C)C)cc2)cc1O | 65.4 to 66.8 °C
38 | COc1ccc2c(c1)C(=O)N(c1ccc3ccn(CC#N)c3c1)C2 | 218 to 220 °C
39 | CCN(CCc1ccc(Nc2ncc3c(n2)-c2ccccc2C(c2cccc(Br)c2)C3)cc1)Cc1ccncc1 (stereo not given) | 88 to 90 °C
40 | O=C(Nc1cc(Cl)c([N+](=O)[O-])cc1O)C(=O)Nc1cc(Cl)c([N+](=O)[O-])cc1O | 302 °C
41 | CCOC(=O)C1=C(C(=O)OC)CC(=O)C2=C1SC=C1C=CC=CN12 | 143 to 144 °C
42 | COC(=O)c1ccc(CCc2c[nH]c3nc(N)[nH]c(=O)c23)cc1 | > 220 °C
43 | O=C(Nc1ccc(Cl)nc1)N1CC2(c3ccc(Cl)cc3)COc3cc(Cl)ccc3C2=N1 (stereo not given) | > 250 °C
44 | O=C(Nc1ccc2nc(CN3CCOCC3)ccc2c1)c1ccc(-c2ccc(F)cc2)cc1 | 211 to 212 °C
45 | CCc1[nH]n(C2CCCC2)c2nc(Cc3ccccc3OC)nc(=O)c1-2 | 145 to 146 °C
46 | CCOc1cc(CCCOc2c(CC(=O)O)cccc2OC)n(Cc2ccc(Cl)cc2Cl)n1 | 109 to 110 °C
47 | CCOC(=O)c1c(OC(=O)CCl)c2ccccc2c2nc3ccccc3nc12 | 208 to 209 °C
48 | Cc1c(N)ccc2c(O)c(C(=O)NCc3ccc(Cl)cc3)cnc12 | 256 to 258 °C
49 | CCOC(=O)c1nn(-c2ccccc2)c2c1CCCc1ccccc1-2 | 110 to 111 °C
50 | O=C(O)CCCOc1ccc(C2=CCCCCC2)cc1 | 87 to 88 °C
51 | CCCCCCCCCCCc1nc2c(O)c(Cl)cc(Cl)c2cc1CCCCCCCCCC | 46 to 47 °C
52 | O=C(O)COc1ccc(-c2c3ccccc3c(Br)c3sc4ccccc4c23)cc1 | 198 to 200 °C
53 | Cc1ccc(C2SC(=O)NC2=O)cc1C (stereo not given) | 121 to 122 °C
54 | CC(C)Cc1ccc(CCc2cc3c(s2)NC(=S)C(C)N=C3c2ccccc2Cl)cc1 (stereo not given) | 188 to 191 °C
55 | Cc1cc(NCC(C)C)c(N)c2nnnn12 | 159 to 162 °C

Row | Structure (SMILES) | melting point
56 | CCCOC(=O)Cc1cc(O)c(C)cc1O | 101 °C
57 | O=C(O)c1cc([N+](=O)[O-])c(-c2ccncc2)[nH]c1=O | > 300 °C
58 | CC1Cc2cc(Br)ccc2C1=O (stereo not given) | 55 °C
59 | O=C(c1ccc(F)cc1)C1CCN(Cc2ccc3ccccc3c2)CC1 | 131 to 134 °C
60 | CCOc1ccc(C(=O)NCc2ccc3c(c2)C(=O)N(C2CCC(=O)NC2=O)C3=O)nn1 (stereo not given) | 238 to 240 °C
61 | Cc1nccn2c(-c3ccnc(NCCC(C)(C)O)n3)c(-c3ccc(F)cc3F)nc12 | 175 °C
62 | C[C@H]1N(C(=O)c2ccc(OCC(F)(F)C(F)F)cc2)CC(O)O[C@@]1(Cn1cncn1)c1ccc(F)cc1F (relative stereo) | 209 to 210 °C
63 | Cc1cc(=O)c(-c2ccc(Oc3ccc(C(F)(F)F)cc3)cc2)c(C)[nH]1 | 258 to 260 °C
64 | COc1cc(OC)nc(SCc2nc(C(F)(F)F)ccc2C(=O)O)n1 | 123 to 124 °C
65 | O=c1[nH]ncc2[nH]c(-c3ccc(OC(F)F)c(OC4CCC4)c3)c(-c3ccccc3)c12 | 280 to 284 °C
66 | Oc1cc2ccccc2nc1O | 261 to 262 °C
67 | C[C@@](O)(C(=O)N1CCC(C(=O)c2ccc(F)cc2)CC1)C(F)(F)F | 78 to 79 °C
68 | Cc1c(C(=O)NCc2ccc3c(Br)c(O)ccc3c2)oc2ccccc12 | 194 to 197 °C
69 | CCOC(=N)c1ccc(Cl)c(Cl)c1 | 62 to 64 °C
70 | O=C(Cc1cccc(O)c1)c1cccc(O)c1 | 151 to 154 °C
71 | COc1cc2c(c3c1OC(C)(C)C3)C(c1ccccc1)=NC(C)(CN1C(=O)c3ccccc3C1=O)C2 (stereo not given) | 121 to 125 °C
72 | Cn1c(=O)c2c(ncn2CCN2CCC(c3c[nH]c4ccc(O)cc34)CC2)n(C)c1=O | 232 °C
73 | Cc1noc(-c2ncn3c2[C@@H]2CCCN2C(=O)c2cc(F)ccc2-3)n1 | 248 to 249 °C
74 | Cc1cnc(N2CCC(c3ccc([N+](=O)[O-])cc3)CC2)n1C | 178 to 179 °C
75 | CSc1ccc2c(c1)C(O)c1ccccc1C=C2 (stereo not given) | 117 to 118 °C
76 | COc1ccccc1C=CC(=O)C(CC=Cc1ccccc1Cl)(CCC(=O)O)c1ccccc1 (stereo not given) | 206 to 210 °C

Row | Structure (SMILES) | melting point
77 | Cn1c(C(F)(F)F)cc(=O)n(-c2ccc3snc(C4OCCO4)c3c2)c1=O | 213 to 216 °C
78 | COc1cc(Nc2ncc(-c3ccccc3C(=O)O)o2)ccc1-c1cnco1 | 271 to 274 °C
79 | CC1CC(n2ccc(-c3ccc(F)cc3)c2-c2ccncc2)CCN1 (stereo not given) | 173 to 175 °C
80 | CC(=O)N1N=C(c2ccncc2)OC1c1ccc(Cl)c([N+](=O)[O-])c1 (stereo not given) | 122 °C
81 | COc1ccc(C2(C#N)CC=C(C(=O)O)CC2)cc1OC1CCCC1 (stereo not given) | 161 to 163 °C
82 | COc1cc(Nc2nccc(-c3ccncc3)n2)cc(OC)c1OC | 205 °C
83 | COc1ccc(NC(=O)c2cc(O[Si](C)(C)C(C)(C)C)ccc2NC(=O)c2ccc(C(C)(C)C)cc2)cc1 | 207 °C
84 | Cc1ccc([N+](=O)[O-])cc1C=CC#N | 113 °C
85 | O=C1C(=O)c2ccccc2C2=C1SCC1(CCC(NC(=O)c3cccc(C(F)(F)F)c3)CC1)O2 (stereo not given) | 266 to 267 °C
86 | CC1Nc2ccccc2N(Cc2ccccc2)C(=O)C1C/C=C/c1ccccc1 (stereo not given) | 119 to 120 °C
87 | COc1ccccc1[C@H](C)C(=O)N1C[C@@H]2[C@H](C1)C(c1ccccc1)(c1ccccc1)C[C@H](O)[C@@]2(O)c1ccccc1OC | 178 to 180 °C
88 | COc1ccc(-c2nc(-c3ccc(F)cc3)sc2-c2ccc(OC)cc2)cc1 | 140 to 142 °C
89 | CN1CCN(c2ccc(Nc3ncc4ccc(-c5ccccc5OCC(=O)OC(C)(C)C)n4n3)cc2)CC1 | 193 to 195 °C
90 | CN1CCC(Oc2ccccc2[N+](=O)[O-])(c2ccccc2)CC1 | 80 to 82 °C
91 | O=c1[nH]c2c(I)c([N+](=O)[O-])c(Cl)c([N+](=O)[O-])c2[nH]c1=O | 240 to 242 °C
92 | Cc1ccc(Oc2c([N+](=O)[O-])cc(C(=O)O)cc2S(N)(=O)=O)cc1 | 236 °C
93 | CCCSc1sc(C(=O)O)c2c1-c1c(cnn1C)CC2 | 216 to 217 °C
94 | Cn1nc(-c2c(F)cccc2Cl)nc1-c1cc(-c2cccc(C(F)(F)F)c2)sc1Cl | 53 to 54 °C
95 | CC(C)(C)c1cc(CCc2ccccc2NC(=O)NC2CCN(Cc3ccccn3)CC2)cc(C(C)(C)C)c1O | 106 to 109 °C
